Source: PubChem BioAssay (NCI)
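Cells were grown in 96-well plates and exposed to each compound for 48 hours at five concentrations; endpoints were interpolated linearly between bracketing concentrations, or set to the highest concentration if not reached. GI50: concentration for 50% inhibition of growth. TGI: total growth inhibition.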

Assays:
Assay in all cases: DTP human tumour cell line panel, 48 h
[1] = test system: CAKI-1 renal
[2] = test system: CCRF-CEM leukemia
[3] = test system: SF-539 CNS
[4] = test system: U251 CNS
[5] = test system: NCI-H23 lung
[6] = test system: EKVX NSCLC
[7] = test system: 786-0 renal
[8] = test system: PC-3 prostate
[9] = test system: SF-268 CNS
[10] = test system: MALME-3M melanoma
[11] = test system: HS 578T breast
[12] = test system: OVCAR-8 ovarian
[13] = test system: SK-OV-3 ovarian
[14] = test system: KM12 colon
[15] = test system: SK-MEL-28 melanoma
[16] = test system: HT29 colon
[17] = test system: UO-31 renal
[18] = test system: OVCAR-5 ovarian
[19] = test system: SNB-19 CNS
[20] = test system: NCI-H460 lung
[21] = test system: HL-60(TB) leukemia
[22] = test system: OVCAR-4 ovarian
[23] = test system: ACHN renal
[24] = test system: HCT-15 colon
[25] = test system: COLO 205 colon
[26] = test system: SNB-75 CNS
[27] = test system: K-562 leukemia
[28] = test system: MDA-MB-231 breast
[29] = test system: A549 NSCLC
[30] = test system: IGROV1 ovarian
[31] = test system: NCI-H522 lung
[32] = test system: RXF 393 renal
[33] = test system: SR leukemia
[34] = test system: UACC-62 melanoma
[35] = test system: HCC-2998 colon
[36] = test system: T-47D breast
[37] = test system: DU-145 prostate
[38] = test system: TK-10 renal
[39] = test system: SF-295 CNS
[40] = test system: SW-620 colon
[41] = test system: UACC-257 melanoma
[42] = test system: HOP-62 NSCLC
[43] = test system: NCI-H226 lung
[44] = test system: BT-549 breast
[45] = test system: LOX IMVI melanoma
[46] = test system: MCF7 breast
[47] = test system: MDA-N
[48] = test system: SK-MEL-2 melanoma
[49] = test system: M14 melanoma
[50] = test system: HCT-116 colon
[51] = test system: SN12C renal
[52] = test system: NCI/ADR-RES ovarian
[53] = test system: MOLT-4 leukemia
[54] = test system: SK-MEL-5 melanoma
[55] = test system: MDA-MB-435
[56] = test system: OVCAR-3 ovarian
[57] = test system: RPMI-8226 leukemia
[58] = test system: HOP-92 NSCLC
[59] = test system: A498 renal

For C[Si](C)(C)C#CCOC=C1CC1, the TGI [1] was > 100 µM, the TGI [2] was > 100 µM and the TGI [3] was > 100 µM. The TGI [4] was > 100 µM, the TGI [5] was > 100 µM and the TGI [6] was > 100 µM. The TGI [7] was > 100 µM, the TGI [8] was > 100 µM and the TGI [9] was > 100 µM. The TGI [10] was > 100 µM, the TGI [11] was > 100 µM and the TGI [12] was > 100 µM. For the same molecule, the TGI [13] was > 100 µM, the TGI [14] was > 100 µM and the TGI [15] was > 100 µM. The TGI [16] was > 100 µM, the TGI [17] was > 100 µM and the TGI [18] was > 100 µM. The TGI [19] was > 100 µM, the TGI [20] was > 100 µM and the TGI [21] was > 100 µM. For the same molecule, the TGI [22] was > 100 µM, the TGI [23] was > 100 µM and the TGI [24] was > 100 µM. For the same molecule, the TGI [25] was > 100 µM, the TGI [26] was > 100 µM and the TGI [27] was > 100 µM. For the same molecule, the TGI [28] was > 100 µM, the TGI [29] was > 100 µM and the TGI [30] was > 100 µM. For the same molecule, the TGI [31] was > 100 µM, the TGI [32] was > 100 µM and the TGI [33] was > 100 µM. The TGI [34] was > 100 µM, the TGI [35] was > 100 µM and the TGI [36] was > 100 µM. The TGI [37] was > 100 µM, the TGI [38] was > 100 µM and the TGI [39] was > 100 µM. The TGI [40] was > 100 µM, the TGI [41] was > 100 µM and the TGI [42] was > 100 µM. The TGI [43] was > 100 µM, the TGI [44] was > 100 µM and the TGI [45] was > 100 µM. For the same molecule, the TGI [46] was > 100 µM, the TGI [47] was > 100 µM and the TGI [48] was > 100 µM. For the same molecule, the TGI [49] was > 100 µM, the TGI [50] was > 100 µM and the TGI [51] was > 100 µM. For the same molecule, the TGI [52] was > 100 µM, the TGI [53] was > 100 µM and the TGI [54] was > 100 µM.
In the case of CC1(C)O[C@@H](CP(c2ccc3ccccc3c2)c2ccc3ccccc3c2)[C@H](CP(c2ccc3ccccc3c2)c2ccc3ccccc3c2)O1, the TGI [1] is reported as > 100 µM, the TGI [2] is reported as > 100 µM and the TGI [4] is reported as > 100 µM. For the same molecule, the TGI [5] was > 100 µM, the TGI [6] was > 100 µM and the TGI [7] was > 100 µM. For the same molecule, the TGI [8] was > 100 µM, the TGI [9] was > 100 µM and the TGI [12] was > 100 µM. The TGI [13] was > 100 µM, the TGI [14] was > 100 µM and the TGI [15] was > 100 µM. The TGI [16] was > 100 µM, the TGI [17] was > 100 µM and the TGI [18] was > 100 µM. For the same molecule, the TGI [19] was > 100 µM, the TGI [55] was > 100 µM and the TGI [20] was > 100 µM. For the same molecule, the TGI [22] was > 100 µM, the TGI [23] was > 100 µM and the TGI [24] was > 100 µM. For the same molecule, the TGI [25] was > 100 µM, the TGI [26] was > 100 µM and the TGI [27] was > 100 µM. The TGI [28] was > 100 µM, the TGI [29] was > 100 µM and the TGI [30] was > 100 µM. The TGI [56] was > 100 µM, the TGI [31] was > 100 µM and the TGI [32] was > 100 µM. The TGI [33] was > 100 µM, the TGI [34] was > 100 µM and the TGI [35] was > 100 µM. For the same molecule, the TGI [36] was > 100 µM, the TGI [37] was > 100 µM and the TGI [38] was > 100 µM. The TGI [39] was > 100 µM, the TGI [40] was > 100 µM and the TGI [41] was > 100 µM. For the same molecule, the TGI [42] was > 100 µM, the TGI [43] was > 100 µM and the TGI [44] was > 100 µM. For the same molecule, the TGI [45] was > 100 µM, the TGI [46] was > 100 µM and the TGI [47] was > 100 µM. The TGI [48] was > 100 µM, the TGI [49] was > 100 µM and the TGI [50] was > 100 µM. For the same molecule, the TGI [51] was > 100 µM, the TGI [52] was > 100 µM and the TGI [53] was > 100 µM. For the same molecule, the TGI [54] was > 100 µM.
With CSc1nc(Cl)c2c(n1)Sc1nc3ccccc3n1N=C2 the TGI [1] was 72.5 µM, the TGI [2] was 46.2 µM and the TGI [4] was > 100 µM. The TGI [5] was > 100 µM, the TGI [7] was 70.2 µM and the TGI [8] was 48 µM. For the same molecule, the TGI [57] was 60 µM, the TGI [9] was > 100 µM and the TGI [10] was 68.2 µM. The TGI [11] was 62.1 µM, the TGI [12] was 36.4 µM and the TGI [13] was > 100 µM. The TGI [14] was > 100 µM, the TGI [15] was > 100 µM and the TGI [16] was 53.6 µM. The TGI [17] was 35.9 µM, the TGI [18] was 97.2 µM and the TGI [19] was > 100 µM. The TGI [55] was > 100 µM, the TGI [20] was > 100 µM and the TGI [22] was > 100 µM. It also gave a TGI [23] of 58 µM, a TGI [24] of 36.7 µM and a TGI [25] of 57.5 µM. For the same molecule, the TGI [26] was 71.5 µM, the TGI [27] was 50 µM and the TGI [28] was 50.9 µM. For the same molecule, the TGI [29] was > 100 µM, the TGI [30] was 36.7 µM and the TGI [56] was 75.8 µM. It also gave a TGI [31] of 39.4 µM, a TGI [32] of 43.4 µM and a TGI [34] of 84.3 µM. The TGI [35] was 60.9 µM, the TGI [36] was 57.2 µM and the TGI [37] was > 100 µM. For the same molecule, the TGI [38] was > 100 µM, the TGI [39] was > 100 µM and the TGI [40] was 29.3 µM. For the same molecule, the TGI [41] was > 100 µM, the TGI [42] was > 100 µM and the TGI [43] was > 100 µM. The TGI [58] was 45.2 µM, the TGI [44] was 43.3 µM and the TGI [45] was 33.5 µM. For the same molecule, the TGI [47] was 59.9 µM, the TGI [48] was > 100 µM and the TGI [49] was 46.3 µM. For the same molecule, the TGI [50] was > 100 µM, the TGI [51] was > 100 µM and the TGI [52] was 55.1 µM. The TGI [59] was > 100 µM, the TGI [53] was 63.2 µM and the TGI [54] was 72.6 µM.
Molecule CC(=O)Oc1ccc2c3c1[C@@H]1O[C@@H]1c1cccc(c1-3)[C@@H]1O[C@H]21 has a TGI [1] of 3.07 µM, a TGI [2] of 3.94 µM and a TGI [7] of 3.14 µM. For the same molecule, the TGI [9] was 5.04 µM, the TGI [11] was 5.98 µM and the TGI [12] was 2.85 µM. For the same molecule, the TGI [13] was 9.71 µM, the TGI [14] was 4.47 µM and the TGI [17] was 2.91 µM. For the same molecule, the TGI [18] was 3.42 µM, the TGI [19] was 23.1 µM and the GI50 [55] was 1.79 µM. For the same molecule, the TGI [55] was 3.38 µM, the TGI [21] was 4.87 µM and the GI50 [22] was 2.39 µM. It also gave a TGI [22] of 5.48 µM, a TGI [23] of 3.74 µM and a TGI [25] of 4.36 µM. For the same molecule, the TGI [26] was 3.07 µM, the TGI [27] was > 100 µM and the TGI [28] was 3.64 µM. The TGI [32] was 2.73 µM, the TGI [34] was 3.44 µM and the TGI [36] was 5.42 µM. The TGI [37] was 4.18 µM, the TGI [38] was 6.12 µM and the TGI [39] was 3.83 µM. For the same molecule, the GI50 [41] was 2.75 µM, the TGI [41] was > 100 µM and the TGI [42] was 3.96 µM. It also gave a TGI [43] of 84.2 µM, a TGI [44] of 3.98 µM and a GI50 [45] of 0.65 µM. The TGI [45] was 2.02 µM, the TGI [46] was > 100 µM and the TGI [47] was 3.32 µM. For the same molecule, the GI50 [48] was 3.12 µM, the TGI [48] was > 100 µM and the TGI [49] was 3.27 µM. The TGI [50] was 2.87 µM, the GI50 [52] was 1.4 µM and the TGI [52] was 3.76 µM. The TGI [59] was 6.57 µM, the TGI [53] was > 100 µM and the TGI [54] was 3.56 µM.
